# From PMC9331678 (Molecules, 2022)
# Columns and labels:
# [1] = 6 h benchtop (early preanalytical) stability in whole blood and in plasma; assay type: in vitro ADME, human
# Description: Six independent plasma samples were processed. The reference solutions were 140 µL acetonitrile-water 4:1 (v/v) mixtures spiked as described above. The mixtures and the reference solutions were subsequently diluted with 90 µL water. Internal standard-corrected matrix factors were calculated as the peak area ratios of the analytes and the internal standards in prepared plasma versus those in a neat solution. In the stability studies, the recoveries of IBR and DIB were calculated as the ratio of the concentrations measured after incubation and those measured at the beginning of the study.
# The preanalytical stability of IBR and DIB was evaluated by adding 20 µL methanol solutions containing 500 ng/mL IBR and DIB to two 1.0 mL aliquots of blood freshly drawn into phlebotomy tubes containing K3-EDTA. Three samples, 3 mL each, were taken from three healthy volunteers (manuscript authors G.B.K., I.V. and Z.K.). One of the fractions was centrifuged at 3000 rpm and 10 °C for 10 min immediately after spiking the analytes, and plasma was separated. Both spiked whole blood and the separated plasma were kept at ambient temperature for 6 h. […] Fifty microliters was drawn from the supernatant of the whole blood sample as well as from the plasma, and was processed as described in Section 2.2.
# [2] = 24 h therapeutic monitoring and noncompartmental pharmacokinetics in chronic lymphocytic leukemia patients receiving IBR; conditions: plasma; for mean DIB/IBR concentration ratio: three patients; for concentration at 0.5 h: 0.5 h postdose; for concentration at 1 h: 1 h postdose; for concentration at 2 h: 2 h postdose; for concentration at 4 h: 4 h postdose; for concentration at 23 h: 23 h postdose
# Description: In order to provide a proof of concept, IBR and DIB were assayed in the plasma samples of three patients treated with IBR. […] The criteria for inclusion were (1) age of ≥18 years, (2) treatment ongoing with IBR for more than 10 days, and (3) no concurrent administration of medications undergoing CYP3A4 metabolism. The subjects gave their written informed consent. Each participant took either two or three 140 mg Imbruvica capsules, as per the therapeutic provision, in the presence of the recruiting clinician.
# Blood samples were centrifuged at 3000 rpm for 10 min in a Hettich Universal 320R centrifuge (Auro-Science, Budapest, Hungary) at 10 °C. Plasma was separated and frozen at −70 °C until analysis was done within 2 weeks.
# [3] = Patient 1, 420 mg IBR per day, steady state
# [4] = Patient 2, 420 mg IBR per day, steady state
# [5] = Patient 3, 280 mg IBR per day, steady state
# [6] = human, oral, 280 mg/day, Conc., subj=3 (280 mg IBR per day)
# [7] = human, oral, 420 mg, Conc., subj=1 (420 mg IBR per day)
smiles,measurement,setting,value
"Nc1ncnc2c1c(-c1ccc(Oc3ccccc3)cc1)nn2[C@@H]1CCCN(C(=O)C(O)CO)C1 (stereo partly drawn) [Dihydrodiol Ibrutinib, 1-[(3R)-3-[4-amino-3-(4-phenoxyphenyl)pyrazolo[3,4-d]pyrimidin-1-yl]piperidin-1-yl]-2,3-dihydroxypropan-1-one]",recovery at 9.8 ng/mL,"[1]; human, plasma (separated from spiked K3-EDTA whole blood), plasma, ambient temperature (25 °C), up to 6 h, all analyses",≥ 85%
same,stability,[1]; whole blood and plasma kept at ambient temperature for 6 h,acceptable for clinical use
same,cases with recoveries lower than 85% (of fifteen analyses),"[1]; whole blood, ambient temperature (25 °C), up to 6 h",one
same,AUC0–24,[2]; [3],2347 nmol·L/h
same,AUMC0–24,[2]; [3],"16,593 nmol × L"
same,AUC0–24,[2]; [4],2528 nmol·L/h
same,AUMC0–24,[2]; [4],"11,626 nmol × L"
same,AUC0–24,[2]; [5],1800 nmol·L/h
same,AUMC0–24,[2]; [5],8172 nmol·L
same,mean DIB/IBR concentration ratio,[2]; at 4 h postdose,2.36 ± 1.69
same,mean DIB/IBR concentration ratio,[2]; at the trough (23–24 h),3.34–3.44
same,mean DIB/IBR concentration ratio,[2]; between 0.5–2 h postdose,0.96–1.19
same,AUC,"[2]; human, oral, 280 mg, AUCALL AUC All, subj=3 (280 mg IBR per day), steady state",1.8 µM·h
same,AUC(0-inf),"[2]; human, oral, 280 mg, AUCIFO AUC Infinity Obs, subj=3 (280 mg IBR per day), steady state",1.88 µM·h
same,AUC(0-inf),"[2]; human, oral, 280 mg, AUCIFP AUC Infinity Pred, subj=3 (280 mg IBR per day), steady state",1.88 µM·h
same,AUC,"[2]; human, oral, 280 mg, AUCLST AUC to Last Nonzero Conc, subj=3 (280 mg IBR per day), steady state",1.8 µM·h
same,Cmax,"[2]; human, oral, 280 mg, CMAX Max Conc, subj=3 (280 mg IBR per day), steady state",217 nM
same,k el,"[2]; human, oral, 280 mg, LAMZ Lambda z, subj=3 (280 mg IBR per day), steady state",3.39e-05 s⁻¹
same,half-life,"[2]; human, oral, 280 mg, LAMZHL Half-Life Lambda z, subj=3 (280 mg IBR per day), steady state",5.68 h
same,MRT last,"[2]; human, oral, 280 mg, MRT0–24, Patient 3, 280 mg IBR per day, steady state",4.54 h
same,MRT,"[2]; human, oral, 280 mg, MRTEVIFO MRT Extravasc Infinity Obs, subj=3 (280 mg IBR per day), steady state",5.75 h
same,MRT,"[2]; human, oral, 280 mg, MRTEVIFP MRT Extravasc Infinity Pred, subj=3 (280 mg IBR per day), steady state",5.72 h
same,MRT,"[2]; human, oral, 280 mg, MRTEVLST MRT Extravasc to Last Nonzero Conc, subj=3 (280 mg IBR per day), steady state",4.54 h
same,Cmax,"[2]; human, oral, 280 mg, cmax, Patient 3, 280 mg IBR per day, steady state",217 nM
same,k el,"[2]; human, oral, 280 mg, ke, Patient 3, 280 mg IBR per day, steady state",3.39e-05 s⁻¹
same,half-life,"[2]; human, oral, 280 mg, t1/2, Patient 3, 280 mg IBR per day, steady state",5.68 h
same,Tmax,"[2]; human, oral, 280 mg, tmax, Patient 3, 280 mg IBR per day, steady state",2 h
same,concentration at 24 h,"[2]; human, oral, 280 mg/day, CLST Last Nonzero Conc, subj=3 (280 mg IBR per day), 24 h",10.1 nM
same,concentration at 24 h,"[2]; human, oral, 280 mg/day, CLSTP Last Nonzero Conc Pred, subj=3 (280 mg IBR per day), 24 h",9.84 nM
same,concentration at 0.5 h,[2]; [6],50.4 nM
same,concentration at 1 h,[2]; [6],195 nM
same,concentration at 2 h,[2]; [6],217 nM
same,concentration at 4 h,[2]; [6],113 nM
same,concentration at 23 h,[2]; [6],10.8 nM
same,concentration at 24 h,"[2]; human, oral, 280 mg/day, Conc., subj=3 (280 mg IBR per day), 24 h postdose",10.1 nM
same,AUC,"[2]; human, oral, 420 mg, AUCALL AUC All, subj=1 (420 mg IBR per day), steady state",2.35 µM·h
same,AUC,"[2]; human, oral, 420 mg, AUCALL AUC All, subj=2 (420 mg IBR per day), steady state",2.53 µM·h
same,AUC(0-inf),"[2]; human, oral, 420 mg, AUCIFO AUC Infinity Obs, subj=1 (420 mg IBR per day), steady state",2.85 µM·h
same,AUC(0-inf),"[2]; human, oral, 420 mg, AUCIFO AUC Infinity Obs, subj=2 (420 mg IBR per day), steady state",2.63 µM·h
same,AUC(0-inf),"[2]; human, oral, 420 mg, AUCIFP AUC Infinity Pred, subj=1 (420 mg IBR per day), steady state",2.88 µM·h
same,AUC(0-inf),"[2]; human, oral, 420 mg, AUCIFP AUC Infinity Pred, subj=2 (420 mg IBR per day), steady state",2.63 µM·h
same,AUC,"[2]; human, oral, 420 mg, AUCLST AUC to Last Nonzero Conc, subj=1 (420 mg IBR per day), steady state",2.35 µM·h
same,AUC,"[2]; human, oral, 420 mg, AUCLST AUC to Last Nonzero Conc, subj=2 (420 mg IBR per day), steady state",2.53 µM·h
same,concentration at 24 h,"[2]; human, oral, 420 mg, CLST Last Nonzero Conc, subj=1 (420 mg IBR per day), 24 h",34.6 nM
same,concentration at 24 h,"[2]; human, oral, 420 mg, CLST Last Nonzero Conc, subj=2 (420 mg IBR per day), 24 h",13.2 nM
same,concentration at 24 h,"[2]; human, oral, 420 mg, CLSTP Last Nonzero Conc Pred, subj=1 (420 mg IBR per day), 24 h",36.5 nM
same,concentration at 24 h,"[2]; human, oral, 420 mg, CLSTP Last Nonzero Conc Pred, subj=2 (420 mg IBR per day), 24 h",13 nM
same,Cmax,"[2]; human, oral, 420 mg, CMAX Max Conc, subj=1 (420 mg IBR per day), steady state",185 nM
same,Cmax,"[2]; human, oral, 420 mg, CMAX Max Conc, subj=2 (420 mg IBR per day), steady state",254 nM
same,concentration at 0.5 h,[2]; [7],53.4 nM
same,concentration at 1 h,[2]; [7],139 nM
same,concentration at 2 h,[2]; [7],185 nM
same,concentration at 4 h,[2]; [7],143 nM
same,concentration at 23 h,[2]; [7],41.3 nM
